{"source": "the COVID Moonshot data (paper PMC7615835)", "key": {"SARS-CoV-2 (SARS-CoV-2) [1]": {"system": "SARS-CoV-2 (SARS-CoV-2)", "conditions": "vero6"}, "[2]": {"conditions": "helaace2"}, "[3]": {"conditions": "calu3"}, "[4]": {"conditions": "a549"}, "SARS-CoV-2 (SARS-CoV-2) [5]": {"system": "SARS-CoV-2 (SARS-CoV-2)", "conditions": "helaace2"}}, "note": "pIC50: −log10 of the molar value. Several values for one entry are separate records, joined by “and”; a condition that tells them apart may be missing. Identical values can stand only once.", "data": [{"smiles": "CNC(=O)c1cc2c(NC(=O)C3CCOc4ccc(Cl)cc43)cncc2s1", "note": "(configuration not stated)", "values": [{"measurement": "pIC50", "setting": "SARS-CoV-2 (SARS-CoV-2) [1]", "value": 6.25}]}, {"smiles": "O=C(Nc1cncc2ccccc12)C1CN(S(=O)(=O)CC2CNC2)Cc2ccc(Cl)cc21", "note": "(configuration not stated)", "values": [{"measurement": "CC50", "setting": "[2]", "value": "> 20", "unit": "µM"}]}, {"smiles": "NC(=O)CN1Cc2ccc(Cl)cc2C(C(=O)Nc2cncc3ccccc23)C1", "note": "(configuration not stated)", "values": [{"measurement": "IC90", "setting": "SARS-CoV-2 (SARS-CoV-2) [1]", "value": "< 0.04", "unit": "µM"}]}, {"smiles": "O=C1NCC(C(=O)Nc2cncc3ccccc23)c2cc(Cl)ccc21", "note": "(configuration not stated)", "values": [{"measurement": "IC90", "setting": "SARS-CoV-2 (SARS-CoV-2) [1]", "value": "> 5 µM and 2.28 µM"}]}, {"smiles": "Cc1ccncc1NC(=O)Cc1cc(Cl)cc(OC2CC(=O)N2)c1", "note": "(configuration not stated)", "values": [{"measurement": "CC50", "setting": "[3]", "value": 63.5, "unit": "µM"}]}, {"smiles": "O=C(Nc1cncc2ccccc12)C1CCNc2cc(Cl)c(Cl)cc21", "note": "(configuration not stated)", "values": [{"measurement": "CC50", "setting": "[4]", "value": "< 0.0229", "unit": "µM"}]}, {"smiles": "CCC(CC)COC(=O)[C@H](C)NP(=O)(OC[C@H]1O[C@@](C#N)(c2ccc3c(N)ncnn23)[C@H](O)[C@@H]1O)Oc1ccccc1", "note": "(stereo in doubt)", "values": [{"measurement": "pIC50", "setting": "SARS-CoV-2 (SARS-CoV-2) [5]", "value": 6.62}]}]}
